The results in this text go back to publication PMC6099841, “New Chromane-Based Derivatives as Inhibitors of Mycobacterium tuberculosis Salicylate Synthase (MbtI): Preliminary Biological Evaluation and Molecular Modeling Studies” (Molecules : A Journal of Synthetic Chemistry and Natural …, 2018).

Common to all, as to assay: biochemical
The target in assay [1] is T1, salicylate synthase MbtI (Mycobacterium tuberculosis, UniProt P9WFX1).
Assay [2] concerns the target T1, salicylate synthase MbtI. To be noted: read-out: MbtI Residual Activity at 100 μM.
For assay [3], the target named is T1, salicylate synthase MbtI. The source holds these as a separate data set.

Molecules are shown by their SMILES. Like-named read-outs stand apart in the source and are kept apart here.

T1 sequence (P9WFX1 whole entry): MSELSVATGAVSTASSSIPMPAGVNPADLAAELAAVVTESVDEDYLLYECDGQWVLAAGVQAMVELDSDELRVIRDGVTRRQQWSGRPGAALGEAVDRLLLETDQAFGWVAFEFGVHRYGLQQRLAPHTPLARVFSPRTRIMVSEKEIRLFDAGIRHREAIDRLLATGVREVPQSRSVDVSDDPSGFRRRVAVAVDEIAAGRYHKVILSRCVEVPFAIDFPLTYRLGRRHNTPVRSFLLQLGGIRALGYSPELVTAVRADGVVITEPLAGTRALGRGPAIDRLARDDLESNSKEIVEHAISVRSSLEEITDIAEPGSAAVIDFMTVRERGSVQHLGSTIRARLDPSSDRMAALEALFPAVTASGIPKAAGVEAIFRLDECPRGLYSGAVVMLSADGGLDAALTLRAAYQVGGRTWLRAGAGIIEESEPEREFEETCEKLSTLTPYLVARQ

Broadly, the IC50 is the concentration that gives 50% inhibition. As to `O=C(O)c1cc(O)cc2c1C(=O)CCO2` [compound 2, 7-Hydroxy-4-oxo-3,4-dihydro-2H-benzopyran-5-carboxylic acid], on salicylate synthase MbtI [1] (read-out: MbtI IC50), the IC50 was 61.3 ± 5.3 µM.

`CC1CCc2c(cc(O)cc2C(=O)O)O1` (stereo not shown) [compound 5, 7-Hydroxy-2-methylchroman-5-carboxylic acid]: at salicylate synthase MbtI [2], the remaining activity at 100 µM turned out to be 50.1 ± 7.1%.

Turning to `CC=C(Oc1cccc(C(=O)O)c1O)C(=O)O` [I, (1-carboxyprop-1-enyloxy)-2-hydroxybenzoic acid], on salicylate synthase MbtI [3], the IC50 was found to be 11.6 ± 2.4 µM.

For the compound `CC1CC(=O)c2c(cc(O)cc2C(=O)O)O1` (stereo not shown) [compound 1, 7-Hydroxy-2-methyl-4-oxo-3,4-dihydro-2H-benzopyran-5-carboxylic acid], the half-inhibitory concentration (IC50) at salicylate synthase MbtI [1] (read-out: IC50) was found to be 55.8 ± 4.2 µM.
